Results reported in PMC13411385, “Methyl on the Bridge: 2‐Methyl Propellane as Precursor for 1,3‐Substituted 2‐Methylated Bicyclo[1.1.1]Pentanes” (Chemistry (Weinheim an Der Bergstrasse, Germany), 2025).

Columns and labels:
[1] = set-up: method as in PMID 31894985; details: between 2,2‐difluorobutanol and 2,2‐difluoropentanol; cited from earlier work
[2] = octanol‐water partition coefficient (logP) by 19F NMR‐based protocol; format: physicochemical; details: for logP: measured octanol‐water partition coefficient, 19F NMR‐based protocol; for increase in lipophilicity on addition of a methyl group: methylated compound vs its nonmethylated analogue (46a vs 46b; 47a vs 47b)
Source text: The effect of the added bridge‐methyl group on physicochemical properties was investigated.
Figure 2 Comparison of measured octanol‐water partition coefficients between phenyl, tolyl, BCP, and 2‐MeBCP.

| Compound | logP [2] | increase in lipophilicity on addition of a methyl group [2] [logP units] | ΔlogP [1] [logP units] |
| --- | --- | --- | --- |
| CCCC(F)(F)CO [2,2‐difluoropentanol] | – | – | 0.58 |
| CC1C2CC1(C(F)(F)CO)C2 (stereo not shown) [46a, 2,2‐difluoro‐2‐(2‐methylbicyclo[1.1.1]pentan‐1‐yl)ethan‐1‐ol] | 2.11 | 0.54 | – |
| OCC(F)(F)c1ccccc1 [47b, 2,2‐difluoro‐2‐phenylethan‐1‐ol] | 1.57 | – | – |

Further lines, with some results ahead:

| logP [2] | increase in lipophilicity on addition of a methyl group [2] [logP units] | Compound | ΔlogP [1] [logP units] |
| --- | --- | --- | --- |
| 1.57 | – | OCC(F)(F)C12CC(C1)C2 [46b, 2‐(bicyclo[1.1.1]pentan‐1‐yl)‐2,2‐difluoroethan‐1‐ol] | – |
| 2.03 | 0.46 | Cc1ccccc1C(F)(F)CO [47a, 2,2‐difluoro‐2‐(o‐tolyl)ethan‐1‐ol] | – |
